Measured values taken from US9861651B2, “Use of nicotinamide riboside to treat hearing loss” (Cornell University, priority 2012, dated 2018).

What was measured:
[1] = system: tissue NAD levels; assay: Tissue NAD levels after intraperitoneal NR; assay type: in vivo; conditions: intraperitoneal injection twice daily at 1000 mg/kg
Protocol: (§1) Nicotinamide riboside (NR) is a well-tolerated precursor of NAD+. In these experiments, NR was administered by intraperitoneal injection twice daily at 1000 mg/kg, a dose which increases tissue NAD levels by 50%, either for 5 days prior to noise exposure and 14 days after noise exposure (NR Before+ After), 5 days prior to noise exposure (NR Before), or 14 days after noise exposure (NR After). […] The hearing loss at 8000 Hz, […], and 32,000 Hz is set forth in the Table and is depicted graphically in FIGS. 4A-4C, respectively.

[2] = system: noise-exposed C57BL6 mice; assay: Auditory brainstem response (ABR) testing of noise-induced hearing loss after 90 dB octave band noise exposure for 2 hr; assay type: in vivo; parameters: Avg. hearing loss: unit not given here; conditions: for transient threshold shift: 24 hours after noise exposure
Protocol: Auditory brainstem response testing was performed as previously described (Willott, J. F., Current Protocols in Neuroscience, 8.21B, B1-B12 (2005). Animals were tested following sedation with ketamine and xylazine (40 mg/kg and 10 mg/kg, respectively). Tone burst stimuli at 8, 16, and 32 kHz for 0.5 msec were used to elicit auditory evoked responses using an auditory brainstem recording system (Intelligent Hearing Systems, Miami, Fla.). An evoked response was determined by identifying waveforms at proper time intervals that increased in magnitude with increasing volume as described previously by Willott.
Animals were exposed to a 90 dB octave band for 2 hr in a cage placed in a soundproof chamber (MAC-2, Industrial Acoustics Company, Bronx N.Y.). The mice were able to freely move throughout the cage. The octave band was generated using ToneGen software (NCH software, Greenwood Village, Colo.) routed through an Audiosource Amp100 amplifier driving two down-facing Fostex FT-96H speakers. The sound pressure level was confirmed at 0, 30, 60, and 90 min, and again just prior to completion of sound exposure using an Extech microphone 407736.
To test whether augmented NAD biosynthesis protects from noise-induced hearing loss, auditory brainstem responses (ABR) elicited by tone burst stimuli after acoustic trauma was measured. An ABR occurs when a mouse hears the tone burst stimulus. In these experiments, acoustic trauma was elicited in mice by a 90 dB octave band noise exposure for 120 min. To quantify the degree of hearing loss, “threshold shifts” were measured. These shifts refer to the increased level of sound intensity that is required to elicit an ABR. The threshold for detecting sound stimuli is determined by exposing mice to 0.5 msec tone bursts at a specific frequency and volume. […] Transient threshold shifts (TTS) refer to a temporary hearing loss 24 hours after noise exposure, and permanent threshold shifts (PTS) refer to hearing loss that remains 2 weeks after exposure.
as §1

[3] = system: spiral ganglia neurites / inner hair cells of noise-exposed mice; assay: Retraction of spiral ganglia neurites from inner hair cells after noise exposure (cochlear immunohistology); assay type: in vivo; conditions: basal turn of the cochlea, NR before and after acoustic trauma
Protocol: Mouse cochlea were prepared as described in Whitlon, D. S. et al., Brain Research Protocols, 6, 159-166 (2001). Mouse cochlea were quickly dissected from the temporal bone following rapid decapitation. Once separated, the apex of the cochlea was gently fenestrated, and the cochlea were immediately fixed in 4% paraformaldehyde overnight at 4° C. The cochlea were then washed with three changes of PBS and incubated in a decalcification solution (10% EDTA/PBS pH 7.4) under constant rotation at 4° C. for 1 week. The decalcification solution was changed daily. Cochlea were washed in 3 changes of PBS and then treated with progressively increasing sucrose concentrations from 10-30%. The cochlea were incubated overnight in 30% sucrose at 4° C. The cochlea were incubated an additional 24 hr in OCT compound (Tissue-Tek). […]
Noise-induced hearing loss is associated with retraction of spiral ganglia neurites from the inner hair cells. As the most prominent hearing losses are seen in the portion of the auditory spectrum that contains the highest audible frequencies, the basal turn of the cochlea where this portion of the auditory spectrum is detected was focused on. […] Immunofluorescence labeling of the cochlea can readily show whether spiral ganglia neurites are forming their proper contacts with the base of inner hair cells. […]

[4] = system: P5 DIV3 rat spiral ganglia neurons; assay: Rotenone-induced neurite degeneration (neurite beading/blebbing, NF-200 stain) in spiral ganglia neuron culture; assay type: cell-based
Protocol: Dissociated spiral ganglia neurons were harvested from P5 rats. Briefly, pups were rapidly decapitated, and cochlea were dissected. The modiolus was then dissected and digested (0.1% trypsin, 0.1% collagenase, HBSS−/−) for 45 min at 37° C. Sequential trituration was performed with fire-polished pipets to release cells from the tissue, and cells were transferred to laminin/polylysine-coated 24-well plates. Neurons were incubated overnight in culture media (DMEM high glucose, N2 supplement, 10 μg/ml insulin, 25 μg/ml BDNF, 25 μg/ml NT3). To elicit neurite degeneration, cultures were incubated with rotenone (10 μM) for 2 hr in the presence/absence of 10 mM NAD+.
Spiral ganglia neuron cultures were fixed with 4% paraformaldehyde and permeabilized with 0.5% Triton X-100™/PBS for 10 min. After washing, cells were blocked with 4% donkey serum and incubated with mouse anti-NF200 (1:1000) overnight at 4° C. Neurite beading was then measured using a previously described, unbiased computerized protocol (Sasaki, Y. et al., J. Neuroscience, 29, 5525-5535 (2009)).
Axonal degeneration in a variety of neurons can be blocked by treatment with millimolar concentrations of NAD+ (Avery, M. A., et al., Current Biology, CB 22, 596-600 (2012)). […] This effect was blocked by simultaneous treatment of neurons with 10 mM NAD+. […]

Question: With `NC(=O)c1ccc[n+]([C@@H]2O[C@H](CO)[C@@H](O)[C@H]2O)c1` [NR, Nicotinamide riboside] as the compound, how does the “increase of tissue NAD levels” value [1] read?
Answer: Its value is 50%.

Question: And the transient threshold shift ([2]; 8000 Hz, NR i.p. twice daily 1000 mg/kg)?
Answer: Its transient threshold shift is 6 dB.

Question: What about the transient threshold shift ([2]; 16,000 Hz, NR i.p. twice daily 1000 mg/kg) of the same compound?
Answer: The transient threshold shift was 8 dB.

Question: And the transient threshold shift ([2]; 32,000 Hz, NR i.p. twice daily 1000 mg/kg)?
Answer: Its transient threshold shift is 16 dB.

Question: What about the Avg. hearing loss ([2]; NR after (i.p. twice daily 1000 mg/kg, 14 days after noise), Baseline, 8 kHz) of the same compound?
Answer: The Avg. hearing loss was 14.

Question: What about the Avg. hearing loss ([2]; NR after, 1 wk post noise, 8 kHz) of the same compound?
Answer: The Avg. hearing loss was 17.

Question: And the Avg. hearing loss ([2]; NR after, 1 wk post noise, 32 kHz)?
Answer: Its Avg. hearing loss is 28.

Question: And the Avg. hearing loss ([2]; NR after, 2 wks post noise, 8 kHz)?
Answer: Its Avg. hearing loss is 18.

Question: What about the Avg. hearing loss ([2]; NR after, 2 wks post noise, 16 kHz) of the same compound?
Answer: Its Avg. hearing loss is 15.

Question: What about the Avg. hearing loss ([2]; NR after, 2 wks post noise, 32 kHz) of the same compound?
Answer: The Avg. hearing loss was 28.

Question: And the Avg. hearing loss ([2]; NR after, 24 h post noise, 8 kHz)?
Answer: Its Avg. hearing loss is 23.

Question: What about the Avg. hearing loss ([2]; NR after, 24 h post noise, 16 kHz) of the same compound?
Answer: Its Avg. hearing loss is 23.

Question: And the Avg. hearing loss ([2]; NR after, 24 h post noise, 32 kHz)?
Answer: Its Avg. hearing loss is 37.

Question: And the Avg. hearing loss ([2]; NR after, Baseline, 16 kHz)?
Answer: Its Avg. hearing loss is 19.

Question: What about the Avg. hearing loss ([2]; NR after, Baseline, 32 kHz) of the same compound?
Answer: Its Avg. hearing loss is 31.

Question: And the Avg. hearing loss ([2]; NR after, Pre-noise, 8 kHz)?
Answer: The Avg. hearing loss was 14.

Question: What about the Avg. hearing loss ([2]; NR after, Pre-noise, 16 kHz) of the same compound?
Answer: The Avg. hearing loss was 21.

Question: What about the Avg. hearing loss ([2]; NR after, Pre-noise, 32 kHz) of the same compound?
Answer: Its Avg. hearing loss is 16.

Question: And the Avg. hearing loss ([2]; NR before (i.p. twice daily 1000 mg/kg, 5 days prior to noise), Baseline, 8 kHz)?
Answer: Its Avg. hearing loss is 14.

Question: And the Avg. hearing loss ([2]; NR before and after (i.p. twice daily 1000 mg/kg, 5 days prior to and 14 days after noise), Baseline, 8 kHz)?
Answer: The Avg. hearing loss was 16.

Question: And the Avg. hearing loss ([2]; NR before and after, 1 wk post noise, 8 kHz)?
Answer: The Avg. hearing loss was 15.

Question: What about the Avg. hearing loss ([2]; NR before and after, 1 wk post noise, 16 kHz) of the same compound?
Answer: Its Avg. hearing loss is 25.

Question: And the Avg. hearing loss ([2]; NR before and after, 1 wk post noise, 32 kHz)?
Answer: Its Avg. hearing loss is 40.

Question: What about the Avg. hearing loss ([2]; NR before and after, 2 wks post noise, 8 kHz) of the same compound?
Answer: Its Avg. hearing loss is 20.

Question: What about the Avg. hearing loss ([2]; NR before and after, 2 wks post noise, 16 kHz) of the same compound?
Answer: Its Avg. hearing loss is 20.

Question: What about the Avg. hearing loss ([2]; NR before and after, 2 wks post noise, 32 kHz) of the same compound?
Answer: Its Avg. hearing loss is 20.

Question: And the Avg. hearing loss ([2]; NR before and after, 24 h post noise, 8 kHz)?
Answer: The Avg. hearing loss was 22.

Question: What about the Avg. hearing loss ([2]; NR before and after, 24 h post noise, 16 kHz) of the same compound?
Answer: The Avg. hearing loss was 26.

Question: And the Avg. hearing loss ([2]; NR before and after, 24 h post noise, 32 kHz)?
Answer: The Avg. hearing loss was 44.

Question: What about the Avg. hearing loss ([2]; NR before and after, Baseline, 16 kHz) of the same compound?
Answer: The Avg. hearing loss was 13.

Question: And the Avg. hearing loss ([2]; NR before and after, Baseline, 32 kHz)?
Answer: Its Avg. hearing loss is 19.

Question: And the Avg. hearing loss ([2]; NR before and after, Pre-noise, 8 kHz)?
Answer: Its Avg. hearing loss is 16.

Question: What about the Avg. hearing loss ([2]; NR before and after, Pre-noise, 16 kHz) of the same compound?
Answer: The Avg. hearing loss was 18.

Question: What about the Avg. hearing loss ([2]; NR before and after, Pre-noise, 32 kHz) of the same compound?
Answer: Its Avg. hearing loss is 28.

Question: What about the Avg. hearing loss ([2]; NR before, 1 wk post noise, 8 kHz) of the same compound?
Answer: Its Avg. hearing loss is 15.

Question: What about the Avg. hearing loss ([2]; NR before, 1 wk post noise, 16 kHz) of the same compound?
Answer: The Avg. hearing loss was 23.

Question: What about the Avg. hearing loss ([2]; NR before, 1 wk post noise, 32 kHz) of the same compound?
Answer: Its Avg. hearing loss is 23.

Question: And the Avg. hearing loss ([2]; NR before, 2 wks post noise, 8 kHz)?
Answer: Its Avg. hearing loss is 18.

Question: What about the Avg. hearing loss ([2]; NR before, 2 wks post noise, 16 kHz) of the same compound?
Answer: The Avg. hearing loss was 18.

Question: And the Avg. hearing loss ([2]; NR before, 2 wks post noise, 32 kHz)?
Answer: The Avg. hearing loss was 23.

Question: What about the Avg. hearing loss ([2]; NR before, 24 h post noise, 8 kHz) of the same compound?
Answer: The Avg. hearing loss was 18.

Question: And the Avg. hearing loss ([2]; NR before, 24 h post noise, 16 kHz)?
Answer: The Avg. hearing loss was 25.

Question: And the Avg. hearing loss ([2]; NR before, 24 h post noise, 32 kHz)?
Answer: The Avg. hearing loss was 38.

Question: What about the Avg. hearing loss ([2]; NR before, Baseline, 16 kHz) of the same compound?
Answer: The Avg. hearing loss was 16.

Question: What about the Avg. hearing loss ([2]; NR before, Baseline, 32 kHz) of the same compound?
Answer: The Avg. hearing loss was 21.

Question: What about the Avg. hearing loss ([2]; NR before, Pre-noise, 8 kHz) of the same compound?
Answer: The Avg. hearing loss was 13.

Question: And the Avg. hearing loss ([2]; NR before, Pre-noise, 16 kHz)?
Answer: Its Avg. hearing loss is 18.

Question: What about the Avg. hearing loss ([2]; NR before, Pre-noise, 32 kHz) of the same compound?
Answer: Its Avg. hearing loss is 17.

Question: And the “protection from permanent hearing loss” value ([2]; all 3 frequencies (8000, 16,000, 32,000 Hz), NR i.p. twice daily 1000 mg/kg)?
Answer: Its value is “similarly protected”.

Question: And the “neurite retraction (distance of spiral ganglia neurites from inner hair cells)” value ([3]; 24 hr after noise exposure)?
Answer: Its value is 4.3±4.5 μm.

Question: What about the “neurite retraction (distance of spiral ganglia neurites from inner hair cells)” value ([3]; 14 d after noise exposure) of the same compound?
Answer: Its value is 2.5±3.5 μm.

Question: `C=C(C)[C@H]1Cc2c(ccc3c2O[C@@H]2COc4cc(OC)c(OC)cc4[C@@H]2C3=O)O1` [rotenone] was tested. Which “neurite degeneration, as measured by the presence of neurite blebbing” value ([4]; 10 μM rotenone, in as early as 2 hr) did it give?
Answer: The value was “resulted in neurite degeneration”.

Question: How did the “effect on rotenone-induced neurite degeneration” value ([4]; simultaneous treatment with 10 mM NAD+ and 10 μM rotenone, 2 hr) turn out when `NC(=O)c1ccc[n+]([C@@H]2O[C@H](COP(=O)([O-])OP(=O)(O)OC[C@H]3O[C@@H](n4cnc5c(N)ncnc54)[C@H](O)[C@@H]3O)[C@@H](O)[C@H]2O)c1` [NAD+] was run?
Answer: The value was “blocked”.
